The molecules below were run against PARP-1 (poly[ADP-ribose] polymerase 1) enzyme (Homo sapiens (Human), UniProt P09874) (assay: PARP-1 (poly[ADP-ribose] polymerase 1) enzyme inhibitory ability, Trevigen assay kit). Details: 1 nM (Table 2); read-out: inhibited PARP-1 enzyme activity.
Sequence of PARP-1 (poly[ADP-ribose] polymerase 1) enzyme (P09874 whole entry): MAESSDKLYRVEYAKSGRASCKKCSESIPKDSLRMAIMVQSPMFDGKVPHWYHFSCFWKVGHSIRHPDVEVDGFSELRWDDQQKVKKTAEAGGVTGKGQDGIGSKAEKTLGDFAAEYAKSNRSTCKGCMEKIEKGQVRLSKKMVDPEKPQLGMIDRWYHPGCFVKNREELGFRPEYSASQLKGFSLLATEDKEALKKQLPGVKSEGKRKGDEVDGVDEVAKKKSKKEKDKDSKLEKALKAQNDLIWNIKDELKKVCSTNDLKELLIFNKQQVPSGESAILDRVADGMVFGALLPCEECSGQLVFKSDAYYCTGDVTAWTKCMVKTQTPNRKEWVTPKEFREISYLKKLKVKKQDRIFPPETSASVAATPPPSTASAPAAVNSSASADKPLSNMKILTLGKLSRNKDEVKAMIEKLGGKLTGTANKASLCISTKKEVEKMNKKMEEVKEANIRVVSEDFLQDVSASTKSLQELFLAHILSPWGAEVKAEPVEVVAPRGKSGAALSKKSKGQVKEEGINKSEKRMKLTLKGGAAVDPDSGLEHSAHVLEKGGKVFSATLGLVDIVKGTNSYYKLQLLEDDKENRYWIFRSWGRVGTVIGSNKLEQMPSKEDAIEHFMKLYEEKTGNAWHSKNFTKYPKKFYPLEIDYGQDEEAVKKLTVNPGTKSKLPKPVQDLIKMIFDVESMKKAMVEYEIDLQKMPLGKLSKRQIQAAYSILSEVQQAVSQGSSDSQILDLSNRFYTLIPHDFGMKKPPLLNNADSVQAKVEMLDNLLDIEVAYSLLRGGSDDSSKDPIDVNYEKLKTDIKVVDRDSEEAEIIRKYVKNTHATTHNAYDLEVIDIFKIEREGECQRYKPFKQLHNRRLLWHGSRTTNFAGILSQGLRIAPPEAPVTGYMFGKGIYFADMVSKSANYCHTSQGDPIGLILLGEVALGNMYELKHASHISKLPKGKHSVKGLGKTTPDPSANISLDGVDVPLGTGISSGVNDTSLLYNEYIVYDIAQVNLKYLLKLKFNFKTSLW
Format: biochemical
In short: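 Human PARP-1 activity was measured with a Trevigen assay kit in histone-coated 96-well plates rehydrated with 50 μL of 1×PARP buffer for 30 minutes. Enzyme (0.5 unit/well) and compound were preincubated 10 minutes at room temperature, then 25 μL of 1×PARP cocktail with biotinylated NAD and activated DNA was added for 1 hour.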
With `N#Cc1ccc(C2=CCN(CCCc3cc4ccc(F)cc4c(=O)[nH]3)CC2)cc1` [Example 47, 4-(1-(3-(7-fluoro-1-oxo-1,2-dihydroisoquinolin-3-yl)propyl)-1,2,3,6-tetrahydropyridin-4-yl)benzonitrile] the inhibition at 0.001 µM was ≥ 80%.

Same assay, conditions: 1 nM compound; read-out: PAR P-1 Inhibitory ability at 1 nM
In the case of `Cc1ccc(F)c2c(=O)[nH]c(CCCN3CCN(c4ccccc4C#N)CC3)cc12` [Example 28, 2-(4-(3-(8-fluoro-5-methyl-1-oxo-1,2-dihydroisoquinolin-3-yl)propyl)piperazin-1-yl)benzonitrile], the inhibition at 0.001 µM is reported as < 50%. With `O=C(CCc1cc2cccc(F)c2c(=O)[nH]1)N1CCN(C(=O)C2CCCC2)CC1` [Example 174, 3-(3-(4-(cyclopentanecarbonyl)piperazin-1-yl)-3-oxopropyl)-8-fluoroisoquinolin-1(2H)-one] the inhibition at 0.001 µM was < 50%. `Cc1ccc(F)c2c(=O)[nH]c(CCC(=O)N3CCN(c4ccc(Cl)cc4)CC3)cc12` [Example 131, 3-(3-(4-(4-chlorophenyl)piperazin-1-yl)-3-oxopropyl)-8-fluoro-5-methylisoquinolin-1(2H)-one] was tested, and the inhibition at 0.001 µM was < 50%. For `N#Cc1ccc(N2CC3CCC(C2)N3CCCc2cc3ncccc3c(=O)[nH]2)cn1` [Example 229, 5-(8-(3-(5-oxo-5,6-dihydro-1,6-naphthyridin-7-yl)propyl)-3,8-diazabicyclo[3.2.1]octan-3-yl)picolinonitrile], the inhibition at 0.001 µM was < 50%. For `N#Cc1ccc(C2=CCN(CCCc3cc4ccc(F)cc4c(=O)[nH]3)CC2)cc1` [Example 47, 4-(1-(3-(7-fluoro-1-oxo-1,2-dihydroisoquinolin-3-yl)propyl)-1,2,3,6-tetrahydropyridin-4-yl)benzonitrile], the inhibition at 0.001 µM was > 80%. With `Cc1ccc(F)c2c(=O)[nH]c(CCC(=O)N3C4CCC3CN(c3ccc(C#N)cc3)C4)cc12` [Example 148, 4-(8-(3-(8-fluoro-5-methyl-1-oxo-1,2-dihydroisoquinolin-3-yl)propanoyl)-3,8-diazabicyclo[3.2.1]octan-3-yl)benzonitrile] the inhibition at 0.001 µM was < 50%. `O=C(CCc1cc2cccc(F)c2c(=O)[nH]1)N1CC=C(c2ccnc(F)c2)CC1` [Example 92, 8-fluoro-3-(3-(2′-fluoro-3,6-dihydro-[4,4′-bipyridine]-1(2H)-yl)-3-oxopropyl)isoquinolin-1(2H)-one] was tested, and the inhibition at 0.001 µM was < 50%. `O=C(CCc1cc2ccc(F)cc2c(=O)[nH]1)N1CCN(c2cccc(F)c2)CC1` [Example 120, 7-fluoro-3-(3-(4-(3-fluorophenyl)piperazin-1-yl)-3-oxopropyl)isoquinolin-1(2H)-one] was tested, and the inhibition at 0.001 µM was < 50%. With `O=c1[nH]c(CCCN2CCN(c3ncccn3)CC2)cc2ccc(F)cc12` [Example 13, 7-fluoro-3-(3-(4-(pyrimidin-2-yl)piperazin-1-yl)propyl)isoquinolin-1(2H)-one] the inhibition at 0.001 µM was < 50%. In the case of `Cc1cc(F)cc2c(=O)[nH]c(CCCN3CC=C(c4ccc(F)cn4)CC3)cc12` [Example 62, 7-fluoro-3-(3-(5-fluoro-3′,6′-dihydro-[2,4′-bipyridine]-1′(2′H)-yl)propyl)-5-methylisoquinolin-1(2H)-one], the inhibition at 0.001 µM is reported as < 50%. With `O=c1[nH]c(CCCN2CC=C(c3ccc(F)cn3)CC2)cc2cccc(F)c12` [Example 44, 8-fluoro-3-(3-(5-fluoro-3′,6′-dihydro-[2,4′-bipyridine]-1′(2′H)-yl)propyl)isoquinolin-1(2H)-one] the inhibition at 0.001 µM was < 50%. Work on `Cc1cc(F)cc2c(=O)[nH]c(CCCN3CC=C(c4ccc(C#N)cc4)CC3)cc12` [Example 58, 4-(1-(3-(7-fluoro-5-methyl-1-oxo-1,2-dihydroisoquinolin-3-yl)propyl)-1,2,3,6-tetrahydropyridin-4-yl)benzonitrile] yielded an inhibition at 0.001 µM of 50 to 80%. With `Cc1ccc(F)c2c(=O)[nH]c(CCCN3CCN(c4ccc(Cl)cc4)CC3)cc12` [Example 33, 3-(3-(4-(4-chlorophenyl)piperazin-1-yl)propyl)-8-fluoro-5-methylisoquinolin-1(2H)-one] the inhibition at 0.001 µM was < 50%. For `Cc1ccc(F)c2c(=O)[nH]c(CCC(=O)N3CC=C(c4ccc(C#N)nc4)CC3)cc12` [Example 145, 1′-(3-(8-fluoro-5-methyl-1-oxo-1,2-dihydroisoquinolin-3-yl)propanoyl)-1′,2′,3′,6′-tetrahydro-[3,4′-bipyridine]-6-carbonitrile], the inhibition at 0.001 µM was < 50%. In the case of `N#Cc1ccc(N2CC3CCC(C2)N3CCCc2cc3ncccc3c(=O)[nH]2)nc1` [Example 232, 6-(8-(3-(5-oxo-5,6-dihydro-1,6-naphthyridin-7-yl)propyl)-3,8-diazabicyclo[3.2.1]octan-3-yl)nicotinonitrile], the inhibition at 0.001 µM is reported as < 50%. For `Cc1ccc(F)c2c(=O)[nH]c(CCCN3CCN(c4ccc(C#N)cn4)CC3)cc12` [Example 22, 6-(4-(3-(8-fluoro-5-methyl-1-oxo-1,2-dihydroisoquinolin-3-yl)propyl)piperazin-1-yl)nicotinonitrile], the inhibition at 0.001 µM was < 50%. With `N#Cc1ccc(NC2CCN(CCCc3cc4cccc(F)c4c(=O)[nH]3)CC2)cc1` [Example 247, 4-((1-(3-(8-fluoro-1-oxo-1,2-dihydroisoquinolin-3-yl)propyl)piperidin-4-yl)amino)benzonitrile] the inhibition at 0.001 µM was 50 to 80%. `Cc1ccc(F)c2c(=O)[nH]c(CCC(=O)N3CCN(C(=O)C4CCCC4)CC3)cc12` [Example 175, 3-(3-(4-(cyclopentanecarbonyl)piperazin-1-yl)-3-oxopropyl)-8-fluoro-5-methylisoquinolin-1(2H)-one] was tested, and the inhibition at 0.001 µM was < 50%. With `N#Cc1ccc(NC2CCN(CCCc3cc4cccc(F)c4c(=O)[nH]3)CC2)cn1` [Example 248, 5-((1-(3-(8-fluoro-1-oxo-1,2-dihydroisoquinolin-3-yl)propyl)piperidin-4-yl)amino)picolinonitrile] the inhibition at 0.001 µM was < 50%. In the case of `Cc1cc(F)cc2c(=O)[nH]c(CCC(=O)N3C4CCC3CN(c3ccc(C#N)cn3)C4)cc12` [Example 214], the inhibition at 0.001 µM is reported as < 50%. For `N#Cc1cc(C2=CCN(C(=O)CCc3cc4cccc(F)c4c(=O)[nH]3)CC2)ccc1F` [Example 87, 2-fluoro-5-(1-(3-(8-fluoro-1-oxo-1,2-dihydroisoquinolin-3-yl)propanoyl)-1,2,3,6-tetrahydropyridin-4-yl)benzonitrile], the inhibition at 0.001 µM was < 50%. In the case of `O=c1[nH]c(CCCN2CC=C(c3ccc(F)cc3)CC2)cc2cccc(F)c12` [Example 42, 8-fluoro-3-(3-(4-(4-fluorophenyl)-3,6-dihydropyridin-1(2H)-yl)propyl)isoquinolin-1(2H)-one], the inhibition at 0.001 µM is reported as 50 to 80%. With `Cc1ccc(F)c2c(=O)[nH]c(CCCN3CCN(C(=O)c4ccccc4)CC3)cc12` [Example 66, 3-(3-(4-benzoylpiperazin-1-yl)propyl)-8-fluoro-5-methylisoquinolin-1(2H)-one] the inhibition at 0.001 µM was < 50%. With `O=C(CCc1cc2ccc(F)cc2c(=O)[nH]1)N1CC=C(c2cccc(F)c2)CC1` [Example 115, 7-fluoro-3-(3-(4-(3-fluorophenyl)-3,6-dihydropyridin-1(2H)-yl)-3-oxopropyl)isoquinolin-1(2H)-one] the inhibition at 0.001 µM was < 50%. `O=C(CCc1cc2cccc(F)c2c(=O)[nH]1)N1CC=C(c2ccc(F)nc2)CC1` [Example 85, 8-fluoro-3-(3-(6-fluoro-3′,6′-dihydro-[3,4′-bipyridine]-1′(2′H)-yl)-3-oxopropyl)isoquinolin-1(2H)-one] was tested, and the inhibition at 0.001 µM was < 50%. For `O=C(CCc1cc2cccc(F)c2c(=O)[nH]1)N1CCN(C(=O)C2CCCO2)CC1` (stereo not drawn) [Example 190, 8-fluoro-3-(3-oxo-3-(4-(tetrahydrofuran-2-carbonyl)piperazin-1-yl)propyl)isoquinolin-1(2H)-one], the inhibition at 0.001 µM was < 50%. `N#Cc1ccc(N2CCN(C(=O)CCc3cc4ncccc4c(=O)[nH]3)CC2)cn1` [Example 243, 5-(4-(3-(5-oxo-5,6-dihydro-1,6-naphthyridin-7-yl)propanoyl)piperazin-1-yl)picolinonitrile] was tested, and the inhibition at 0.001 µM was < 50%. `Cc1ccc(F)c2c(=O)[nH]c(CCCN3CCN(c4ccc(C(F)(F)F)cc4)CC3)cc12` [Example 27, 8-fluoro-5-methyl-3-(3-(4-(4-(trifluoromethyl)phenyl)piperazin-1-yl)propyl)isoquinolin-1(2H)-one] was tested, and the inhibition at 0.001 µM was < 50%. In the case of `N#Cc1cc(N2CCN(C(=O)CCc3cc4ccc(F)cc4c(=O)[nH]3)CC2)ccc1F` [Example 109, 2-fluoro-5-(4-(3-(7-fluoro-1-oxo-1,2-dihydroisoquinolin-3-yl)propanoyl)piperazin-1-yl)benzonitrile], the inhibition at 0.001 µM is reported as < 50%. In the case of `Cc1cc(F)cc2c(=O)[nH]c(CCC(=O)N3C4CCC3CN(c3ccc(F)cc3)C4)cc12` [Example 215, 7-fluoro-3-(3-(3-(4-fluorophenyl)-3,8-diazabicyclo[3.2.1]octan-8-yl)-3-oxopropyl)-5-methylisoquinolin-1(2H)-one], the inhibition at 0.001 µM is reported as < 50%. With `N#Cc1ccc(N2CCN(C(=O)CCc3cc4ncccc4c(=O)[nH]3)CC2)nc1` [Example 242, 6-(4-(3-(5-oxo-5,6-dihydro-1,6-naphthyridin-7-yl)propanoyl)piperazin-1-yl)nicotinonitrile] the inhibition at 0.001 µM was < 50%. For `N#Cc1ccc(N2CC3CCC(C2)N3CCCc2cc3ncccc3c(=O)[nH]2)cc1` [Example 225, 4-(8-(3-(5-oxo-5,6-dihydro-1,6-naphthyridin-7-yl)propyl)-3,8-diazabicyclo[3.2.1]octan-3-yl)benzonitrile], the inhibition at 0.001 µM was > 80%. In the case of `Cc1ccc(F)c2c(=O)[nH]c(CCC(=O)N3CCN(C(=O)C4CCCCC4)CC3)cc12` [Example 171, 3-(3-(4-(cyclohexanecarbonyl)piperazin-1-yl)-3-oxopropyl)-8-fluoro-5-methylisoquinolin-1(2H)-one], the inhibition at 0.001 µM is reported as < 50%. In the case of `O=c1[nH]c(CCCN2C3CCC2CN(c2ccc(F)cn2)C3)cc2ncccc12` [Example 231, 7-(3-(3-(5-fluoropyridin-2-yl)-3,8-diazabicyclo[3.2.1]octan-8-yl)propyl)-1,6-naphthyridin-5(6H)-one], the inhibition at 0.001 µM is reported as < 50%. With `O=C(CCc1cc2ccc(F)cc2c(=O)[nH]1)N1CCN(c2ccc(C(F)(F)F)cc2)CC1` [Example 118, 7-fluoro-3-(3-oxo-3-(4-(4-(trifluoromethyl)phenyl)piperazin-1-yl)propyl)isoquinolin-1(2H)-one] the inhibition at 0.001 µM was < 50%.

Same assay, conditions: PARP-1 enzyme activity
Work on `Cc1cc(F)cc2c(=O)[nH]c(CCCN3CC=C(c4ccc(C#N)cc4)CC3)cc12` [Example 58, 4-(1-(3-(7-fluoro-5-methyl-1-oxo-1,2-dihydroisoquinolin-3-yl)propyl)-1,2,3,6-tetrahydropyridin-4-yl)benzonitrile] yielded an IC50 of 1.76 nM. In the case of `Cc1ccc(F)c2c(=O)[nH]c(CCCN3CCN(c4ccc(C#N)cn4)CC3)cc12` [Example 22, 6-(4-(3-(8-fluoro-5-methyl-1-oxo-1,2-dihydroisoquinolin-3-yl)propyl)piperazin-1-yl)nicotinonitrile], the IC50 is reported as 1.2 nM. In the case of `N#Cc1ccc(N2CCN(C(=O)CCc3cc4ncccc4c(=O)[nH]3)CC2)nc1` [Example 242, 6-(4-(3-(5-oxo-5,6-dihydro-1,6-naphthyridin-7-yl)propanoyl)piperazin-1-yl)nicotinonitrile], the IC50 is reported as 3.18 nM.
